Reference: patent US8486899B2, “Antioxidant” (Morinaga Milk Industry Co., Ltd., priority 2008, dated 2013)

Experiments:
ApoE gene-deficient mice [1] = assay type: in vivo; details: for Amount of lipid peroxide in blood (MDA concentration (μM)): ApoE gene-deficient mice on high-cholesterol diet, oral, once a day, 30 μg per day, serum 14 days after start of administration, TBARS assay kit; for Effect of inhibiting formation of a lipid peroxide in blood (in words, versus negative sample): ApoE gene-deficient mice, oral 30 μg per day, 14 days after start of administration
Text: The actions of inhibiting formation of a lipid peroxide of various test samples including the antioxidant of the present invention can be evaluated by using, as an index, the amount of a thiobarbituric acid (TBA) reactive substance (TBARS), for example. Specifically, it may be defined that the larger the amount of the TBARS, the larger the amount of a lipid peroxide formed.
Examples of the TBARS include malondialdehyde (MDA) which reacts with TBA under high-temperature and acidic conditions and is a natural by-product of a lipid peroxidation. An MDA-TBA adduct can be detected by measurement of an absorbance at 530 to 540 nm to perform colorimetric measurement of MDA.
Also, the action of inhibiting formation of a lipid peroxide of a test sample can be evaluated using ApoE gene-deficient mice, which are often used as model animals which develop arteriosclerosis by hypercholesterolemia (hyper-LDL-cholesterolemia) (for example, see Reference Document 1: “Saibokogaku (Cell Engineering),” Extra Issue, “Medical Experiment Manual” series, Strategy for Study of Arteriosclerosis+Hyperlipidemia, Shujunsha Co., 1st edition, 1st impression, published on Apr. 1, 1996, pp. 441-443).
Further, in the model mice, the lipid peroxide level is higher than that of normal mice, and formation of atherosclerotic lesions (plagues) in the artery is observed with time. Therefore, the action of inhibiting formation of a lipid peroxide of a test sample can be evaluated by administering the test sample to the model mice and measuring a lipid peroxide in blood of the model mice.
Model animals which develop arteriosclerosis, ApoE gene-deficient mice, were used to examine the action of inhibiting formation of a lipid peroxide of 3-O-β-D-glucopyranosyl-4-methylergost-7-en-3-ol.
3-O-β-D-glucopyranosyl-4-methylergost-7-en-3-ol manufactured in Production Example 1 above was used as a test sample, and Mevalotin (DAIICHI SANKYO COMPANY, LIMITED), which is an HMG-CoA reductase inhibitor, was used as a control sample.
Those samples were separately dissolved in physiological saline so that the concentration of each compound was 30 μg/ml and were used for a test. Note that physiological saline was used as a negative sample.
(§1) Six-week-old male ApoE gene-deficient mice (purchased from Japan SLC, Inc.) were preliminarily fed with a high-cholesterol diet (manufactured by Research Diets, Inc.) for 2 weeks and divided into groups each of 15 mice.
To mice of each group, the solution including the test sample, control sample, or negative sample was separately administered orally once a day for 3 consecutive days using medical probes in an amount of 1 ml per 25 g of mouse body weight. […] Then, the amount of TBARS was measured using OxiSelect TBARS Assay Kit (manufactured by […]). […]

ApoE gene-deficient mice [2] = assay: Number of atherosclerotic lesions (plaques) in thoracic aorta of ApoE gene-deficient mice; assay type: in vivo; details: oral once a day for 39 consecutive days; for Number of plaques formed in thoracic aorta: ApoE gene-deficient mice on high-cholesterol diet, 1 ml of 30 μg/ml per 25 g body weight, Oil red staining 40 days after start; for Effect on plaque formation (in words, versus negative sample): ApoE gene-deficient mice
Experimental: In addition, it is generally known that a primary lesion of arteriosclerosis is caused by oxidized LDL. Therefore, it is also possible to evaluate the action of reducing a risk of arteriosclerosis through inhibiting formation of a lipid peroxide of the test sample by counting the number of atherosclerotic lesions (plaques) in the artery of each model mouse treated with the test sample.
In Example 2, 3-O-β-D-glucopyranosyl-4-methylergost-7-en-3-ol was evaluated on the effect of reducing a risk of arteriosclerosis through the effect of inhibiting a lipid peroxide by counting the number of atherosclerotic lesions (plaques) in the artery using known arteriosclerosis model animals, ApoE gene-deficient mice.
A test sample, a control sample, and a negative sample were prepared in the same way as in Example 1 above and were each used for a test.
as §1
Each of the sample solutions including the test sample, control sample, and negative sample was separately administered orally once a day for 39 consecutive days using medical probes in an amount of 1 ml per 25 g of mouse body weight. Forty days after the start of administration, the thoracic aorta part was fixed with formalin and stained with Oil red, and the number of plaques was counted.
The test results of this example are shown in Tale 2.

Compound | Amount of lipid peroxide in blood (MDA concentration (μM)) (ApoE gene-deficient mice [1]) [µM] | Effect of inhibiting formation of a lipid peroxide in blood (in words, versus negative sample) (ApoE gene-deficient mice [1]) | Number of plaques formed in thoracic aorta (ApoE gene-deficient mice [2]) | Number of plaques formed in thoracic aorta (ApoE gene-deficient mice [2]; listed as test sample) | Effect on plaque formation (in words, versus negative sample) (ApoE gene-deficient mice [2])
CC1C(O[C@@H]2O[C@H](CO)[C@@H](O)[C@H](O)[C@H]2O)CC[C@@]2(C)C1CC=C1[C@@H]3CC[C@H]([C@H](C)CC[C@H](C)C(C)C)[C@@]3(C)CC[C@@H]12 (stereo partly drawn) [Test sample, 3-O-β-D-glucopyranosyl-4-methylergost-7-en-3-ol] | 0.51 ± 0.22 | the effect of inhibiting formation of a lipid peroxide in blood was clearly confirmed | 5.8 ± 1.6 | 5.8 | had an effect of inhibiting plaque formation on the arterial endothelium
CC[C@H](C)C(=O)O[C@H]1C[C@H](O)C=C2C=C[C@H](C)[C@H](CC[C@@H](O)C[C@@H](O)CC(=O)[O-])[C@H]21.[Na+] [Control sample, reference compound] | 0.93 ± 0.05 | a significant decrease in amount of a lipid peroxide in blood was not observed | 10.6 ± 3.2 |  | no significant difference although plaque formation was found to decrease
